Results on four compounds are retold here after patent US20230049917A1, “Pharmaceutical Composition of CASR Modulators and Methods and Uses Thereof” (Lupin Limited, priority 2019, published 2023).

Like-named read-outs stand apart in the source and are kept apart here.

For data set [1] the following is noted: cited from earlier work.
Data set [2] is described as follows: Pharmacokinetic analysis after oral administration of the formulation to rats. It is filed as in vivo. To be noted: male, Sprague Dawley, rat, 5 mg/kg. Here is the method:
Male Sprague Dawley Rats (weight 225±25 gm; aged 8 to 10 weeks) were administered orally with the formulation. Each of the tested compounds was dosed at 5 mg/kg at a dose volume of 1 mL/kg. Blood samples were collected at time points 0.25, 0.5, 1, 2, 4, 6, 8 and 24 hours and analyzed the plasma concentrations of administered compound and calculated PK parameters. The plasma concentrations of the tested compounds were measured by liquid chromatography with tandem mass spectrometry (LCMS-MS) using […] extraction method. The plasma concentration-time data was subjected to Non-Compartmental Analysis using Phoenix WinNonlin® (Version 5.3) software to assess the pharmacokinetic parameters. Peak plasma concentrations (Cmax) and time for the peak plasma concentrations (Tmax) were the observed values. The area under the concentration time curve (AUC) was calculated by linear trapezoidal rule.

The mark [3] stands for this setting: CKD patients not on dialysis, week 32.

As to `C[C@@H](NCCCc1cccc(C(F)(F)F)c1)c1cccc2ccccc12` [Cinacalcet], in data set [1] (setting [3]), the phosphorus levels was 4.5 ± 1.0 mg/dL and the “phosphorus levels, change” value is reported as “+21.4%”. Further, the “serum calcium levels, frequently observed” value in data set [1] (patients with CKD not on dialysis) is given as below 8.4 mg/dL.
In general, Cmax refers to the maximum level reached in the sampled fluid or tissue. Broadly, the Tmax is the time from dosing to the highest level. As to `C[C@@H](NC[C@H]1CN(c2cc(C(=O)O)cc(C(F)(F)F)c2)CCO1)c1cccc2ccccc12` [Compound 1, 3-((S)-2-((((R)-1-(naphthalen-1-yl)ethyl)amino)methyl)morpholino)-5-(trifluoromethyl)benzoic acid], the AUC(0-t) in data set [2] (oral, dose volume 1 mL/kg, plasma, sampling to 24 hours, read-out: AUC0-1) is 7.3 ± 0.5 µM·h. Also, the Cmax in data set [2] (oral, plasma, read-out: Cmax) is 3.6 ± 1 µM. The Tmax in data set [2] (oral, plasma, read-out: Tmax) was 15 to 60 min.
For the compound `COc1cc([C@@H](C)NC[C@@H]2Cc3ccccc3[C@H](c3ccc(C)c(C(=O)O)c3C)C2)ccc1F.Cl` [Compound 4, 3-((1R,3S)-3-((((R)-1-(4-fluoro-3-methoxyphenyl)ethyl)amino)methyl)-1,2,3,4-tetrahydronaphthalen-1-yl)-2,6-dimethylbenzoic acid], in data set [2] (in vivo, po), the AUC(0-t) was 5.5 ± 1 µM·h, the highest level (Cmax) was 1.5 ± 1 µM and the Tmax was 30 to 120 min.
In the same order, the values of `Cc1ccc(N2C[C@H](CCN[C@H](C)c3cccc4ccccc34)Oc3ccccc32)cc1C(=O)O.Cl` [Compound 2, 2-methyl-5-((S)-2-(2-(((R)-1-(naphthalen-1-yl)ethyl)amino)ethyl)-2H-benzo[b][1,4]oxazin-4(3H)-yl)benzoic acid] are 16 ± 3 µM·h, 4.9 ± 3 µM and 15 min.
